From patent US10413501B2, “Cosmetic composition containing halomonas ferment extract, and use thereof” (LUBRIZOL ADVANCED MATERIALS, INC., priority 2014, dated 2019)

System: Primary Human Subcutaneous Preadipocytes
Format: cell-based
Conditions: 2.5 ug/mL
Procedure: Quantification of adipogenesis is evaluated with AdipoRed™ Adipogenesis Assay Reagent (Lonza). The increase of the accumulation of lipids is determined by measuring the fluorescence signal of Nile Red in primary human Primary Human Subcutaneous Preadipocytes after treatment with exopolysaccharide produced by the strain of Halomonas eurihalina species with deposit number LMG P-28571 obtained in accordance with example 1 in Adipocyte Differentiation Medium. Cells treated with Adipocyte Differentiation Medium alone are used as a basal control. Human preadipocytes (from a donor) (ZENBIO) are seeded (13,000 cells/well, 5 wells per condition) in 96-clear well plates in Preadipocyte Growth Medium (ZENBIO). The cells are incubated for 24 hours at 37° C. in a water-saturated atmosphere of 95% air and 5% CO2. […] In the basal control, preadipocytes are treated with the Adipocyte Differentiation Medium only. As a negative control, preadipocytes are treated with the Adipocyte Differentiation Medium and caffeine. Quantification of the accumulation of lipids is carried out by AdipoRed™ reagent (LONZA) assay. […] The percentage of normalized lipid accumulation compared with the basal control is calculated.

## Cn1c(=O)c2c(ncn2C)n(C)c1=O [Caffeine, caffeine]
  % Lipid accumulation vs basal control: 87.50%
